Assay results reported in patent publication US20220153704A1 (priority 2019, published 2022).

Test: DVS characterization of hygroscopicity and stability under different humidity
Assay type: physicochemical
Details: 25° C.
Method: The dynamic vapor sorption (DVS) graph was collected on DVS Intrinsic of SMS (Surface Measurement Systems). The relative humidity at 25° C. was corrected by the deliquescent point of LiCl, Mg(NO3)2 and KCl.
In order to evaluate the hygroscopicity and stability of anhydrous crystalline form E under different humidity conditions, DVS and XRPD tests were performed on crystalline form E samples at a constant temperature of 25° C.

## CCN1C[C@]2(COC)CC[C@H](OC)[C@]34C5C[C@]6(O)[C@@H](OC)C[C@@](OC(C)=O)(C5[C@H]6OC(=O)c5ccc(OC)cc5)[C@H](C13)[C@H](OC)[C@H]24 (stereo partly drawn) [crystalline form E, (1α,6α,14α,16β)tetrahydro-8,13,14-triol-20-ethyl-1,6,16-trimethoxy-4-methoxymethyl-8-acetoxy-14-(4′-p-methoxybenzyl)-aconitane]
  crystalline form before and after the DVS test (XRPD): did not change
Humidity 80% RH
  water adsorbed (DVS): 0.12%
DVS, up to 80% RH
  hygroscopicity: no hygroscopicity
